# Laboratory results as given in patent US20100184989A1, “De Novo Synthesis of Conjugates” (Nektar Therapeutics, priority 2007, published 2010).
# Target: calcium channel type L (Rattus norvegicus, UniProt P22002)
# Assay: Calcium channel type L binding assay, [3H]Nitrendipine displacement
# Settings: rat cortical membranes; [3H]Nitrendipine 0.2 nM; 50 mM TRIS-HCl pH 7.7, 25° C., 60 minutes; nifedipine reference value given beside each test compound
# Protocol: In the assay, rat cortical membranes were used as a receptor source and the radioligand [^3H]Nitrendipine (70-87 Ci/mmol) was used at a final ligand concentration of 0.2 nM. […] The reactions were carried out in 50 mM TRIS-HCl (pH 7.7) at 25° C. for 60 minutes. The reaction was terminated by rapid vacuum filtration onto glass fiber filters. Radioactivity trapped onto the filters was determined and compared to control values in order to ascertain any interactions of test compound with the nitredipine binding site (Gould, Murphy, and Snyder. Molecular Pharmacology 25, 235-241 (1984)).
# Chain of calcium channel type L (P22002 whole entry): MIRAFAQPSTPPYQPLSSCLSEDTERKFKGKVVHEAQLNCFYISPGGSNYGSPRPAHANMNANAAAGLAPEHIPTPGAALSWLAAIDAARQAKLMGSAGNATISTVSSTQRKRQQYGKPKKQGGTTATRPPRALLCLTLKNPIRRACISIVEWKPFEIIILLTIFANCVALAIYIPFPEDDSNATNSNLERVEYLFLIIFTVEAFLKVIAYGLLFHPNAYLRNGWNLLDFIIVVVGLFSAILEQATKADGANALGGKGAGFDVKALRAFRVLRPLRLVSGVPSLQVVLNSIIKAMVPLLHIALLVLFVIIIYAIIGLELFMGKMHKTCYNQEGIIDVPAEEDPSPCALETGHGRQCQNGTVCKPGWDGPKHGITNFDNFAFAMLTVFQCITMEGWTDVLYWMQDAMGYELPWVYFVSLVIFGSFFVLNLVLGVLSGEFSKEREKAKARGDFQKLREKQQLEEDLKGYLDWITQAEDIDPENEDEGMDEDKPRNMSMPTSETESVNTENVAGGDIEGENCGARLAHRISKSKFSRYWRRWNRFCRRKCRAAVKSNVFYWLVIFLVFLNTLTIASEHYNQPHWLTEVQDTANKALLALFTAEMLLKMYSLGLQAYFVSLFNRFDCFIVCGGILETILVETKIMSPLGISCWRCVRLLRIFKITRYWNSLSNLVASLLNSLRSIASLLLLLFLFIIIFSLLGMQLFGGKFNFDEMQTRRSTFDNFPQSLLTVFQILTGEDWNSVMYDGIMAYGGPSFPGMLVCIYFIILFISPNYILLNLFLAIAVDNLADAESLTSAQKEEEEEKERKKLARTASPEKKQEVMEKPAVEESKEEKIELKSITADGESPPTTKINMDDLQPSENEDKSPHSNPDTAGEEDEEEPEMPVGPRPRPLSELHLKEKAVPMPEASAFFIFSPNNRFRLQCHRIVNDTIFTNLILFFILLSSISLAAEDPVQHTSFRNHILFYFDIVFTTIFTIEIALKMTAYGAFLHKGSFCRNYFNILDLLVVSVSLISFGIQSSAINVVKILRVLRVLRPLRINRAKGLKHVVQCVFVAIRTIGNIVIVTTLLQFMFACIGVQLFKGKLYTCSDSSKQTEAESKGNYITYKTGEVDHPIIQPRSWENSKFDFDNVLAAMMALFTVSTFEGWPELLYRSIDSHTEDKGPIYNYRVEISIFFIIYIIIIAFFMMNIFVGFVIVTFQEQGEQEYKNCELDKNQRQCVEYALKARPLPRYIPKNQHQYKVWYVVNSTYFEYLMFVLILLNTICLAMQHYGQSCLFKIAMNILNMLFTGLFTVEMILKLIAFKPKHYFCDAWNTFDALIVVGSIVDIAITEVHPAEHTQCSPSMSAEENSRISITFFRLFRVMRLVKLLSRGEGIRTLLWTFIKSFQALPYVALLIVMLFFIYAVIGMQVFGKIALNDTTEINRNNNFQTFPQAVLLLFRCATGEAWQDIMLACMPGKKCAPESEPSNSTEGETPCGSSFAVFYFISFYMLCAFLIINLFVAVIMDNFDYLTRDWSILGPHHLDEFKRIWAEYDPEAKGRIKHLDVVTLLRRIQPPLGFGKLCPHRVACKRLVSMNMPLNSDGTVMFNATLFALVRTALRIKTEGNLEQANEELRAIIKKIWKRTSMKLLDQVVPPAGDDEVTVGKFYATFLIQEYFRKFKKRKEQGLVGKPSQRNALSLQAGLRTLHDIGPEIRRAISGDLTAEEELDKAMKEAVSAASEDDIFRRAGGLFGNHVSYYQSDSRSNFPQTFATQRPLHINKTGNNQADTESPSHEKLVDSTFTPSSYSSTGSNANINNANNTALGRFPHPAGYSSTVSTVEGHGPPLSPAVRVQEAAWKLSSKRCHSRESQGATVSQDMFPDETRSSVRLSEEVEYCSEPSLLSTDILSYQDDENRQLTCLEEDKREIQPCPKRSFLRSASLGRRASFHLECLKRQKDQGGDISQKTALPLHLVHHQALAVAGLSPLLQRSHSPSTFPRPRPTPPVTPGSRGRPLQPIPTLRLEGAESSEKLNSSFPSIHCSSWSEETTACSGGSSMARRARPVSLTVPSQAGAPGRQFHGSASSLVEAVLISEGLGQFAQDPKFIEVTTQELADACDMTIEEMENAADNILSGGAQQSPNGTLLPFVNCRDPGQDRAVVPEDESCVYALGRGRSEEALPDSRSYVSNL
row,IC50 [nM],SMILES
1,160,"COCCOCCOCCOC(=O)C1=C(C)NC(C)=C(C(=O)OCCOCCOCCOC)C1c1ccccc1[N+](=O)[O-] [compound (2) from Example 1, 2,6-dimethyl 4-(2-nitrophenyl)-1,4-dihydropyridine-3,5-dicarboxylic acid dimethoxy tri(ethylene glycol)ester]"
2,55.6,"CCCCCCOCCOCCOC(=O)C1=C(C)NC(C)=C(C(=O)OCCOCCOCCCCCC)C1c1ccccc1[N+](=O)[O-] [compound (6c) from Example 3, 2,6-dimethyl 4-(2-nitrophenyl)-1,4-dihydropyridine-3,5-dicarboxylic acid dihexoxy di(ethylene glycol)Ester]"
3,67.4,"COCCOCCOC(=O)C1=C(C)NC(C)=C(C(=O)OCCOCCOC)C1c1ccccc1[N+](=O)[O-] [compound (6a) from Example 3, 2,6-dimethyl 4-(2-nitrophenyl)-1,4-dihydropyridine-3,5-dicarboxylic acid dimethoxy di(ethylene glycol)ester]"

row,SMILES,IC50 [nM]
1,"CCCCOCCOCCOC(=O)C1=C(C)NC(C)=C(C(=O)OCCOCCOCCCC)C1c1ccccc1[N+](=O)[O-] [compound (6b) from Example 3, 2,6-dimethyl 4-(2-nitrophenyl)-1,4-dihydropyridine-3,5-dicarboxylic acid dibutoxy di(ethylene glycol)ester]",15.5
